From patent US20220273628A1, “EFFECTS OF LYSERGIC ACID DIETHYLAMIDE (LSD) AND OF LSD ANALOGS TO ASSIST PSY[…] G[…] DISORDER OR OTHER ANXIETY NOT RELATED TO LIFE-T[…]” (Universitätsspital Basel, priority 2021, published 2022)

Assays:
[1] = tested on: 5-HT1 receptors; details: cited from earlier work
[2] = tested on: patients with anxiety disorder without somatic illness; assay: Randomized, double-blind, placebo-controlled phase II cross-over study of LSD: ratings of anxiety, depression and psychological distress; assay type: in vivo, human
Method: Specifically, in patients with generalized anxiety disorder, LSD or placebo was administered in double-blind manner in two sessions separated by 6 weeks and anxiety, depression and psychological distress were assessed between sessions, 2, 8, and 16 weeks after the second session. Then patients who received LSD crossed over to placebo and vice versa.
The examples study used a double-blind cross-over design with two treatment sequences each lasting 24 weeks (LSD vs. placebo-assisted psychotherapy) and separated by a […] between-sequence period. Order was counter-balanced and random. Each participant served as its own control over the 52-weeks total study duration. Treatment effects are also compared between subjects for the first 24 week study period before the cross-over.
(§1) Each of the four LSD/Placebo sessions lasted 12 hours from 8 AM to 8 PM. Sessions took place in a quiet room at the Ambulatory Study Center of the University Hospital Basel (Basel center) or in the private practice office of Dr. P. Gasser (Solothurn center). At the beginning of the session, current mood and mental state were discussed and a urine drug screen was taken and any AEs since the last visit were recorded. Any open questions or concerns were addressed by the investigator. The participants were advised to lie in a bed or sit comfortably on a chair. Other than going to the bathroom, the participants remained in the treatment room for the entire 12-hour experimental session and were supervised constantly up to 8-12 hours after LSD/placebo administration depending on the participant's response and as needed. The subjective effects of LSD at the dose used in this study were expected to last 8-12 hours (Gasser et al., 2014; Holze et al., 2021; Schmid et al., 2015). […] During the LSD/placebo effect, the participants were instructed to focus their awareness inward. Subjects were encouraged to wear eye shades during the first hours (or the light was dimmed) as well as to listen to music and discussions/talking much with the investigator were discouraged. Subjects were allowed to remain mostly undisturbed with brief physical contacts every two hours when heart rate and blood pressure were measured. At the end of the sessions, 10-12 hours after LSD/placebo administration, the acute subjective peak effects were retrospectively rated by the participants using the 5D-ASC, SCQ, AMRS, and VASs and the experience was discussed. Ten-twelve hours after LSD/placebo administration the participants were allowed to return to their home with company and supervision provided by the partner, a relative, or a friend. If supervision was not available or if effects persisted, the night was spent at the study site.
The STAI is a widely used self-report instrument for assessing anxiety in adults. It includes separate measures of state and trait anxiety (Spielberger et al., 1983). The STAI evaluates the essential qualities of feelings of apprehension, tension, nervousness, and worry. The STAI differentiates between the temporary condition of state anxiety and the more general and long-standing quality of trait anxiety. The STAI state anxiety subscale asks for feelings at the moment of filling out the questionnaire, and the STAI trait anxiety subscale ask subjects to indicate how they generally view themselves. For both subscales, scores from 20 to 39 represent mild anxiety, and scores from 40 to 59 indicated moderate anxiety, whereas scores from 60 to 80 indicated severe anxiety. Both the state and trait STAI are commonly used as outcome measures in studies in patients with anxiety disorder (Fisher et al., 1999; Laakmann et al., 1998). A global STAI score can be derived by adding up the state and trait anxiety scale scores (range: 40-160 points). Similar to the pilot study both STAI scale scores were used to determine study inclusion at the screening visit (Gasser et al., 2014; Gasser et al., 2015). […]

[3] = tested on: healthy volunteers; details: cited from earlier work
[4] = tested on: adrenergic α1 receptors; details: cited from earlier work
[5] = tested on: patients with anxiety disorder without somatic illness; assay: Same phase II study: acute alterations of mind (5D-ASC) and mystical-type effects (MEQ30); assay type: in vivo, human
Method: as §1, with “If supervision was not available or if effects persisted, the night was spent at the study site.” left out
The 5 dimensions of altered states of consciousness (5D-ASC) scale is a visual analog scale consisting of 94 items (Dittrich, 1998; Studerus et al., 2010). […] Each item of the scale was scored on a 0-100 mm VAS. […]

[6] = between-subjects, after the first session, p=0.04
[7] = between-subjects, week 10 (2 weeks after the second dose), p=0.002
[8] = between-subjects, weeks 16 and 24, did not reach statistical significance
[9] = within-subjects, 2 weeks after the second administration, p=0.003

SMILES: CCN(CC)C(=O)[C@@H]1C=C2c3cccc4[nH]cc(c34)C[C@H]2N(C)C1 [LSD, lysergic acid diethylamide]
- activity at 5-HT1 receptors [1]: stimulates
- STAI-S, STAI-T, STAI-G, HDRS, BDI and SCL-90 Global scores compared with baseline ([2]; LSD condition only, 19 patients, 2 weeks after the second treatment session, p=0.006, 0.01, 0.03, 0.02, 0.03): reduced scores on all outcome measures significantly
- STAI-S ratings compared with placebo ([2]; between-subjects, first period, week 10 (2 weeks after the second dose), 200 μg per os, p=0.008): significantly reduced
- STAI-S ratings compared with placebo ([2]; between-subjects, after the first session, p=0.03): significantly reduced
- HDRS scores compared with placebo [2, 6]: already reduced scores
- STAI-G ratings compared with placebo [2, 6]: significantly reduced
- STAI-T ratings compared with placebo ([2]; between-subjects, week 10 (2 weeks after the second dose), p=0.001): significantly reduced
- HDRS scores compared with placebo [2, 7]: significantly reduced
- STAI-G ratings compared with placebo [2, 7]: significantly reduced
- SCL-90 Global scores compared with placebo ([2]; between-subjects, week 10, p=0.004): significantly reduced
- BDI scores compared with placebo ([2]; between-subjects, week 10, p=0.02): significantly reduced
- SCL-90 Global compared with placebo ([2]; between-subjects, week 16 and week 24, did not reach statistical significance): remained reduced
- STAI-S ratings compared with placebo ([2]; between-subjects, weeks 16 and 24 (8 and 16 weeks after the second dose), did not reach statistical significance): continued to be reduced
- STAI-G ratings compared with placebo [2, 8]: continued to be reduced
- STAI-T ratings compared with placebo [2, 8]: continued to be reduced
- STAI-S symptom score, difference from baseline, compared with placebo ([2]; within-subjects (19 patients), 2 weeks after the second administration, p=0.01): significantly reduced
- BDI symptom score, difference from baseline, compared with placebo ([2]; within-subjects, 2 weeks after the second administration, p=0.002): significantly reduced
- STAI-G symptom score, difference from baseline, compared with placebo [2, 9]: significantly reduced
- STAI-T symptom score, difference from baseline, compared with placebo [2, 9]: significantly reduced
- SCL-90 Global symptom score, difference from baseline, compared with placebo ([2]; within-subjects, 2 weeks after the second administration, p=0.004): significantly reduced
- HDRS symptom score, difference from baseline, compared with placebo ([2]; within-subjects, 2 weeks after the second administration, p=0.03): significantly reduced
- optimism and trait openness compared with placebo ([3]; 75 μg intravenously, at two weeks): increased
- blood pressure and heart rate ([3]; 40-80 μg intravenously, 10 healthy volunteers): slightly elevated
- activity at adrenergic α1 receptors [4]: stimulates
- ratings of mystical-type experiences on the MEQ30 questionnaire ([5]; 200 μg vs placebo, similar at first and second session): significantly and strongly increased
- alterations in all scales of the 5D-ASC questionnaire ([5]; 200 μg, all p<0.001 vs. placebo, comparable at session 1 and 2): significant and marked alterations
- acute effects (5D-ASC) compared with healthy subjects given the same dose ([5]; 200 μg, comparison with Holze et al., 2021): generally greater
